tested on: papillary muscle of the guinea pig; test: Action potential duration on the papillary muscle of the guinea pig (hypoxia-shortened APD90); conditions: 2 μM; 60 min after addition; relative to shortening caused by hypoxia
Excerpt: Action Potential Duration on the Papillary Muscle of the Guinea Pig
ATP deficiency states observed during ischemia in the cardiac muscle cell, lead to a shortening of the action potential duration (ATP=adenosine triphosphate). They are regarded as one of the causes of so-called reentry arrhythmias, which can cause sudden cardiac death. The opening of ATP-sensitive potassium channels by the lowering of the ATP level is regarded as the cause of this. For the measurement of the action potential on the papillary muscle of the guinea pig a standard microelectrode technique was employed.
Guinea pigs of both sexes were killed by a blow to the head, the hearts were removed, and the papillary muscles were separated out and suspended in an organ bath. The organ bath was rinsed with Ringer's solution (136 mmol/l of NaCl, 3.3 mmol/l of KCl, 2.5 mmol/l of CaCl2, 1.2 mmol/l of KH2PO4, 1.1 mmol/l of MgSO4, 5.0 mmol/l of glucose, 10.0 mmol/l of 1-(2-hydroxyethyl)piperazine4-(2-ethanesulfonic acid) (HEPES), pH adjusted to 7.4 with NaOH) and aerated with 100% oxygen at a temperature of 37° C. The muscle was stimulated with square-wave pulses of 1 V and 1 ms duration and a frequency of 1 Hz by means of an electrode. The action potential was derived and recorded by means of a glass microelectrode inserted intracellularly, which was filled with 3 mol/l of KCl solution. The compound to be tested was added to the Ringer's solution in a concentration of 2 μmol/l. The action potential was amplified using an amplifier from Hugo Sachs (March-Hugstetten, Germany) and stored and analyzed by means of a computer. The duration of the action potential was determined at a degree of repolarization of 90% (APD90). After an equilibration time of 30 min, the action potential shortening was produced by rinsing the papillary muscle with a hypoxic NaCl solution. The glucose was removed here, the HEPES buffer replaced by PIPES buffer (piperazine-1,4-bis(2-ethanesulfonic acid)), the pH was adjusted to 6.5 and the aeration was carried out using 100% nitrogen. After a time of 60 min, this led to a marked shortening of the APD90. After this time, the test compound was added and the relengthening of the action potential recorded after a further 60 min. The compound-caused relengthening of the APD90 was calculated as a percentage, in relation to the shortening caused by hypoxia. The test compounds were added to the bath solution as stock solution in propanediol.
The following relengthenings of the APD90 values were observed.

Row | SMILES | Relengthening of the APD90 shortened by hypoxia [%]
1 | CNC(=S)NS(=O)(=O)c1cc(CCNC(=O)c2cnc3ccccc3c2)ccc1OCCOC [Example 2, 1-[5-(2-(3-Quinolinecarboxamido)ethyl)-2-(2-methoxyethoxy)phonylsulfonyl]-3-methyl-thiourea] | 42
2 | CNC(=S)NS(=O)(=O)c1cc(CCNC(=O)c2cnc3ccccc3c2)ccc1OCCOCC(F)(F)F [Example 4, 1-[5-(2-(3-Quinolinecarboxamido)ethyl)-2-(2-(2,2,2-trifluoroethoxy)ethoxy)phenyl-sulfonyl]-3-methyl-thiourea] | 69
3 | CCCOc1ccc(CCNC(=O)c2cnc3ccccc3c2)cc1S(=O)(=O)NC(=S)NC [Example 8, 1-[5-(2-(3-Quinolinecarboxamido)ethyl)-2-propyloxyphenylsulfonyl]-3-methyl-thiourea] | 35
4 | CNC(=S)NS(=O)(=O)c1cc(CCNC(=O)C=C(C)C)ccc1OCCOC [Example 17, 1-[5-(2-(3-Methylbut-2-eneamido)ethyl)-2-(2-methoxyethoxy)phenylsulfonyl]-3-methyl-thiourea] | 34

tested on: chloroform-induced ventricular fibrillation in the mouse; test: Chloroform-induced ventricular fibrillation in the mouse; type: in vivo; conditions: 3 mg/kg i.p., 30 min before chloroform anesthesia; untreated control 100%
Excerpt: Chloroform-induced Ventricular Fibrillation in the Mouse (Action in the Case of Vagal Dysfunction)
Hypoactivity of the vagal nervous system leads to hyperactivity of the sympathetic nervous system. Damages to health that result from an inequilibrium of the autonomic nervous system when the dysfunction affects the heart include the weakening of the myocardial contractile force and fatal cardiac arrhythmias such as ventricular fibrillation. The action of the test compounds was investigated in the model of chloroform-induced ventricular fibrillation in the mouse (see J. W. Lawson, Antiarrhythmic activity of some isoquinoline derivatives determined by a rapid screening procedure in the mouse; J. Pharmacol. Exp. Ther. 160 (1968) 22).
The test compound was dissolved in a mixture of dimethyl sulfoxide (DMSO) and 10 percent sodium hydrogencarbonate solution and administered intraperitoneally (i.p.). The dose was 3 mg/kg. 30 min later, the mouse was anesthetized with chloroform in a beaker. As soon as respiratory arrest had occurred under deep anesthesia (toxic stage of anesthesia), the thorax of the animal was opened using a pair of scissors and the heartbeat was visually inspected. It can be determined here at a glance whether the heart is beating, fibrillating, or has stopped. […]

Row | SMILES | Fibrillation ratio (in %) [%]
5 | COc1ccc(CCNC(=O)C2=CCCCC2)cc1S(=O)(=O)NC(=S)NC(C)C [Example 20, 1-[5-(2-(1-Cyclohex-1-enecarboxamido)ethyl)-2-methoxyphenylsulfonyl]-3-isopropyl-thiourea] | 70
6 | COc1ccc(CCNC(=O)C2=CCCCC2)cc1S(=O)(=O)NC(=S)NC1CCCCC1 [Example 21, 1-[5-(2-(1-Cyclohex-1-enecarboxamido)ethyl)-2-methoxyphenylsulfonyl]-3-cyclohexyl-thiourea] | 70

target: hSUR1/hKir6.2 (Homo sapiens, UniProt Q09428+Q14654); test: Action on hSUR1/hKir6.2-transfected CHO cells (membrane potential, DIBAC4 fluorescence, FLIPR); type: cell-based; conditions: 10 μM; CHO cells activated with diaxozide
Sequence (Q09428 whole entry): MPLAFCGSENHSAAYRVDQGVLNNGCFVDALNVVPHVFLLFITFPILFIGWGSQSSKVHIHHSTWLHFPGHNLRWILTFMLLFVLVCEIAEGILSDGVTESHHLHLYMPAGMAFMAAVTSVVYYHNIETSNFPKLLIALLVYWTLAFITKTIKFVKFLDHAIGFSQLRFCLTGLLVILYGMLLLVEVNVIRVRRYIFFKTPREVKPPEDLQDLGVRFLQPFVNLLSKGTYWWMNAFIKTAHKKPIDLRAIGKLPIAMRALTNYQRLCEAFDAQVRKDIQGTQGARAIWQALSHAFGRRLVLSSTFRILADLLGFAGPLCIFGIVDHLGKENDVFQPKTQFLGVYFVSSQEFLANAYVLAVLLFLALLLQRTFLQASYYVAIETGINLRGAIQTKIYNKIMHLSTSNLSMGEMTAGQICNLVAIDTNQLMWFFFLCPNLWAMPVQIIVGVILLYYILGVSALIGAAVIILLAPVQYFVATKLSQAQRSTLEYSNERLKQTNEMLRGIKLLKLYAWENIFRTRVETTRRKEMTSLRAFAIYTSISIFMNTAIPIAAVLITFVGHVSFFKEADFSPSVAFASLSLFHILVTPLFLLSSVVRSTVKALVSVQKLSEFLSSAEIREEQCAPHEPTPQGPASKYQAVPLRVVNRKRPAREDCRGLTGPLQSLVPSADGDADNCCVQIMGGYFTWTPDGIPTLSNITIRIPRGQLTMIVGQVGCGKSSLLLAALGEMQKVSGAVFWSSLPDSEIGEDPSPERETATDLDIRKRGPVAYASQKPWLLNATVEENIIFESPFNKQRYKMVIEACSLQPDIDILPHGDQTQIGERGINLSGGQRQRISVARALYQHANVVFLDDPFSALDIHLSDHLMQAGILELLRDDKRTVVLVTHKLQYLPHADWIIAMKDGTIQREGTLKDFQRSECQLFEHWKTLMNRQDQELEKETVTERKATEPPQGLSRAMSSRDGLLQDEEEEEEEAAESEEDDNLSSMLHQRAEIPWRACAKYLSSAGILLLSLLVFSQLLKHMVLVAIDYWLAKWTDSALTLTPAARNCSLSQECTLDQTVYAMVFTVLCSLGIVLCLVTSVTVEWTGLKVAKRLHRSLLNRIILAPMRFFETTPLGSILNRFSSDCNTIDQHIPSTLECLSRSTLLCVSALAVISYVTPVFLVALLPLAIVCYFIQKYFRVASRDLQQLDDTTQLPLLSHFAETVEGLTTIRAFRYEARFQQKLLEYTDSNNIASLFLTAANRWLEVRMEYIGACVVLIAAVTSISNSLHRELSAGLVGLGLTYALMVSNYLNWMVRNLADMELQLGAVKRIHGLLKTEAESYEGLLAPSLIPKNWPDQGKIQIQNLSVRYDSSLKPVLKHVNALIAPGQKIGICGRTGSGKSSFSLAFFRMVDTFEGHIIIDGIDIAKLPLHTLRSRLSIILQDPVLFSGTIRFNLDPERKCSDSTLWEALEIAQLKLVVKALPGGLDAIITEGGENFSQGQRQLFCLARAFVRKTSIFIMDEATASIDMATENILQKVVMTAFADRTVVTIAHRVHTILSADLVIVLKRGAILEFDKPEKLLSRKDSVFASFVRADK
Sequence (Q14654 whole entry): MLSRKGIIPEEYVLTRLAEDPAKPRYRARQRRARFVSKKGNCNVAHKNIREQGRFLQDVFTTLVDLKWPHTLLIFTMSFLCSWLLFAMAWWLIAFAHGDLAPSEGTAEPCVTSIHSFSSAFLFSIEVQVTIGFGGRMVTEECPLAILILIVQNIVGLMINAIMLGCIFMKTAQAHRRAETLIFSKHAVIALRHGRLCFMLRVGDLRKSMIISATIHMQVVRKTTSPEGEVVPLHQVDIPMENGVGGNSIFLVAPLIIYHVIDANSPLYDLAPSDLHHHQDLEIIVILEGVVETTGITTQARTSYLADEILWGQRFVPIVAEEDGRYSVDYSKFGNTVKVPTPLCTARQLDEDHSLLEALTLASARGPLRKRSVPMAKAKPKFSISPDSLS
Excerpt: Action on hSUR1/hKir6.2-transfected CHO Cells (Hypoglycemic Action)
The target organ of these compounds is the […] of the pancreas where they block ATP-sensitive potassium channels and produce a release of the hypoglycemic hormone insulin by influencing the electrical potential of the cell membrane.
The extent of this depolarization of the cell membrane, which is caused by the compounds according to the invention, was investigated on CHO cells that were transfected with the cloned components of human pancreatic ATP-sensitive potassium channels, hSUR1, and hKir6.2, and activated by pretreatment with diaxozide, an opener of ATP-sensitive potassium channels. The potency of a compound with respect to the membrane potential of these transfected and activated CHO cells is a measure of the hypoglycemic potential of this compound.
On the day of measurement, the microtiter plates were washed three times with PBS (physiological buffer solution). In the last washing step, 90 μl remained in each well. The cells were then loaded with the fluorescent dye DIBAC4 (Molecular Probes, Portland, Oreg., USA) by addition of 90 μl of a 10-micromolar solution of DIBAC4 in PBS and of 90 μl of a 400 micromolar solution of diaxozide in PBS to each well. After an incubation time of 30 min at 37° C., the microtiter plates were then transferred to a fluorescent microtiter plate reader (FLIPR; Molecular Devices, Sunnyvale, Calif., USA). The cells were stimulated by means of an argon laser (Innova 90; Coherent, Santa Clara, Calif., USA) at a wavelength of 488 nm and the fluorescence emission was measured by means of a CCD camera. The measurement of the membrane potential began after 4 min by addition of 20 μl of a solution of the test compound or of the control solution to each well, the resulting fluorescence emission being measured every 20 seconds for a period of 20 min. The data shown are mean values of at least 4 experiments.

Row | Blockade hSUR1/hKir6.2 [%] | SMILES
7 | 6.1 | CNC(=S)NS(=O)(=O)c1cc(CCNC(=O)c2cnc3ccccc3c2)ccc1OCCOC [Example 2, 1-[5-(2-(3-Quinolinecarboxamido)ethyl)-2-(2-methoxyethoxy)phonylsulfonyl]-3-methyl-thiourea]
8 | 0 | CNC(=O)NS(=O)(=O)c1cc(CCNC(=O)c2cnc3ccccc3c2)ccc1OCCOC [Example 3, 1-[5-(2-(3-Quinolinecarboxamido)ethyl)-2-(2-methoxyethoxy)phenylsulfonyl]-3-methyl-urea]
9 | 69.8 | CNC(=S)NS(=O)(=O)c1cc(CCNC(=O)c2cnc3ccccc3c2)ccc1OCCOCC(F)(F)F [Example 4, 1-[5-(2-(3-Quinolinecarboxamido)ethyl)-2-(2-(2,2,2-trifluoroethoxy)ethoxy)phenyl-sulfonyl]-3-methyl-thiourea]
10 | 67.5 | CNC(=S)NS(=O)(=O)c1cc(CCNC(=O)c2cnc3ccccc3c2)ccc1OCCOc1ccccc1 [Example 11, 1-[5-(2-(3-Quinolinecarboxamido)ethyl)-2-(2-phenoxyethoxy)phenylsulfonyl]-3-methyl-thiourea]
11 | 38.3 | COc1ccc(CCNC(=O)C2=CCCCC2)cc1S(=O)(=O)NC(=S)NC(C)C [Example 20, 1-[5-(2-(1-Cyclohex-1-enecarboxamido)ethyl)-2-methoxyphenylsulfonyl]-3-isopropyl-thiourea]

tested on: not given; test: not given; conditions: not given

Row | melting point [°C] | SMILES
12 | 85 | CNC(=S)NS(=O)(=O)c1cc(CCNC(=O)c2cnc3ccccc3c2)ccc1OC [Example 1, 1-[5-(2-(3-Quinolinecarboxamido)ethyl)-2-methoxyphenylsulfonyl]-3-methyl-thiourea]
13 | 128 | CNC(=O)NS(=O)(=O)c1cc(CCNC(=O)c2cnc3ccccc3c2)ccc1OCCOCC(F)(F)F [Example 6, 1-[5(2-(3Quinolinecarboxamido)ethyl)-2-(2(2,2,2-trifluoroethoxy)ethoxy)phenyl-sulfonyl]-3-methyl-urea]
14 | 189 to 193 | CCOc1ccc(CCNC(=O)c2cnc3ccccc3c2)cc1S(=O)(=O)NC(=S)NC [Example 7, 1-[5-(2-(3-Quinolinecarboxamido)ethyl)-2-ethoxyphenylsulfonyl]-3-methyl-thiourea]
15 | 120 | CCCOc1ccc(CCNC(=O)c2cnc3ccccc3c2)cc1S(=O)(=O)NC(=O)NC [Example 9]
16 | 50 to 52 | CCOCCOc1ccc(CCNC(=O)c2cnc3ccccc3c2)cc1S(=O)(=O)NC(=S)NC [Example 10, 1-[5-(2-(3-Quinolinecarboxamido)ethyl)-2-(2-ethoxyethoxy)phenylsulfonyl]-3-methyl-thiourea]
17 | 110 | CNC(=S)NS(=O)(=O)c1cc(CCNC(=O)c2cnc3ccccc3c2)ccc1OCCOc1ccccc1 [Example 11, 1-[5-(2-(3-Quinolinecarboxamido)ethyl)-2-(2-phenoxyethoxy)phenylsulfonyl]-3-methyl-thiourea]
18 | 124 | CNC(=S)NS(=O)(=O)c1cc(CCNC(=O)c2cnc3ccccc3c2)ccc1OCCc1ccccc1 [Example 12, 1-[5-(2-(3-Quinolinecarboxamido)ethyl)-2-(2-phenylethoxy)phenylsulfonyl]-3-methyl-thiourea]
19 | 75 | CNC(=S)NS(=O)(=O)c1cc(CCNC(=O)c2cnc3ccccc3c2)ccc1OCC(F)(F)F [Example 13, 1-[5-(2-(3-Quinolinecarboxamido)ethyl)-2-(2,2,2-trifluoroethoxy)phenylsulfonyl]-3-methyl-thiourea]
20 | 155 to 156 | CNC(=S)NS(=O)(=O)c1cc(CCNC(=O)c2cnc3ccccc3c2)ccc1-c1ccco1 [Example 14, 1-[5-(2-(3-Quinolinecarboxamido)ethyl)-2-(2-furyl)phenylsulfonyl]-3-methyl-thiourea]
21 | 153 to 154 | CNC(=S)NS(=O)(=O)c1cc(CCNC(=O)C=C(C)C)ccc1OC [Example 15, 1-[5-(2-(3-Methylbut-2-eneamido)ethyl)-2-methoxyphenylsulfonyl]-3-methyl-thiourea]
22 | 199 to 203 | CNC(=O)NS(=O)(=O)c1cc(CCNC(=O)C=C(C)C)ccc1OC [Example 16, 1-[5-(2-(3-Methylbut-2-eneamido)ethyl)-2-methoxyphenylsulfonyl]-3-methyl-urea]
23 | 179 to 182 | CNC(=S)NS(=O)(=O)c1cc(CCNC(=O)C2=CCCCC2)ccc1OC [Example 18, 1-[5-(2-(1-Cyclohex-1-enecarboxamido)ethyl)-2-methoxyphenylsulfonyl]-3-methyl-thiourea]
24 | 175 | CNC(=O)NS(=O)(=O)c1cc(CCNC(=O)C2=CCCCC2)ccc1OC [Example 19, 1-[5-(2-(1-Cyclohex-1-enecarboxamido)ethyl)-2-methoxyphenylsulfonyl]-3-methyl-urea]
25 | 150 to 155 | CNC(=S)NS(=O)(=O)c1cc(CCNC(=O)C2=CCCCC2)ccc1OCCOC [Example 22, 1-[5-(2-(1-Cyclohex-1-enecarboxamido)ethyl)-2-(2-methoxyethoxy)phenylsulfonyl]-3-methyl-thiourea]
